± gives the standard deviation of the averaged measurements.
How the values were obtained:
CRIZOTINIB = compound: C[C@@H](Oc1cc(-c2cnn(C3CCNCC3)c2)cnc1N)c1c(Cl)ccc(F)c1Cl [CRIZOTINIB]; assay: surviving fraction relative to DMSO-only wells; higher = less growth inhibition; conditions: exposure time: 5 days
In short: (§1)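 Log-phase tumour cell lines were seeded at 250–500 cells per well in 384-well plates. After 24 hours they were exposed continuously for five days to inhibitors at 0.5, 1, 5, 10, 50, 100, 500 and 1000 nM. Viability was read by CellTiter-Glo luminescence after 10 minutes at room temperature, and surviving fraction is luminescence normalised to the median of DMSO-only wells. Each line was screened three times and kept only if replicate Pearson r >0.7 and median Z' >0.3.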

ABIRATERONE = compound: C[C@]12CC[C@H](O)CC1=CC[C@@H]1[C@@H]2CC[C@]2(C)C(c3cccnc3)=CC[C@@H]12 [ABIRATERONE]; assay: as above; conditions: exposure time: 5 days
In short: as §1

Test System | surviving fraction (CRIZOTINIB; 1 nM) | surviving fraction (CRIZOTINIB; 5 nM) | surviving fraction (CRIZOTINIB; 10 nM) | surviving fraction (CRIZOTINIB; 50 nM) | surviving fraction (CRIZOTINIB; 100 nM) | surviving fraction (CRIZOTINIB; 500 nM) | surviving fraction (CRIZOTINIB; 1000 nM) | surviving fraction (ABIRATERONE; 0.5 nM) | surviving fraction (ABIRATERONE; 1 nM) | surviving fraction (ABIRATERONE; 5 nM) | surviving fraction (ABIRATERONE; 10 nM) | surviving fraction (ABIRATERONE; 50 nM) | surviving fraction (ABIRATERONE; 100 nM) | surviving fraction (ABIRATERONE; 500 nM) | surviving fraction (ABIRATERONE; 1000 nM) | surviving fraction (CRIZOTINIB; 0.5 nM)
SG31 HEADNECK | 1.2 ± 0.13 | 1.01 ± 0.12 | 1.22 ± 0.24 | 1.17 ± 0.26 | 1.19 ± 0.18 | 0.856 ± 0.073 | 0.6 ± 0.058 | 1.21 ± 0.14 | 1.11 ± 0.19 | 1.09 ± 0.12 | 0.866 ± 0.035 | 1.06 ± 0.13 | 0.997 ± 0.03 | 1.13 ± 0.23 | 0.981 ± 0.065 | –
SG32 HEADNECK | 1.05 ± 0.096 | 1.21 ± 0.066 | 0.936 ± 0.088 | – | 1.01 ± 0.12 | 0.541 ± 0.036 | 0.352 ± 0.016 | 1.18 ± 0.12 | 1.29 ± 0.2 | 1.13 ± 0.2 | 1.22 ± 0.11 | 1.15 ± 0.05 | 1.17 ± 0.12 | 1.13 ± 0.16 | 1.21 ± 0.19 | 1.09 ± 0.096
SG43 HEADNECK | 1.06 ± 0.15 | 1.02 ± 0.062 | 0.947 ± 0.31 | 0.87 ± 0.073 | 0.756 ± 0.094 | 0.586 ± 0.027 | 0.271 ± 0.03 | 1.23 ± 0.2 | 1.1 ± 0.39 | 0.922 ± 0.036 | 0.934 ± 0.21 | 1.02 ± 0.51 | 0.995 ± 0.12 | 0.967 ± 0.13 | 0.987 ± 0.2 | 1.28 ± 0.25
SIHA CERVIX | 1.06 ± 0.079 | 1.12 ± 0.053 | 1.14 ± 0.061 | 1.06 ± 0.046 | 1.09 ± 0.059 | 0.9 ± 0.028 | 0.662 ± 0.014 | 1.16 ± 0.013 | 1.15 ± 0.016 | 1.18 ± 0.11 | 1.12 ± 0.086 | 1.18 ± 0.064 | 1.22 ± 0.046 | 1.27 ± 0.06 | 1.16 ± 0.056 | 1.08 ± 0.044
SJSA1 BONE | 1.69 ± 0.11 | 1.65 ± 0.11 | 1.719 ± 0.008 | 0.796 ± 0.079 | 1.57 ± 0.021 | 1.62 ± 0.037 | 1.06 ± 0.11 | 1.04 ± 0.051 | 1.09 ± 0.086 | 1.13 ± 0.032 | 1.1 ± 0.026 | 1.11 ± 0.037 | 1.15 ± 0.031 | 1.1 ± 0.015 | 1.04 ± 0.073 | 1.72 ± 0.049
SKBR3 BREAST | 1.1 ± 0.046 | 1.09 ± 0.03 | 1.14 ± 0.25 | – | 1.03 ± 0.046 | 1 ± 0.12 | – | 0.995 ± 0.11 | 1.07 ± 0.073 | 1.2 ± 0.17 | 0.924 ± 0.1 | 1.11 ± 0.18 | 1.14 ± 0.068 | 1.08 ± 0.1 | 0.918 ± 0.18 | 1.12 ± 0.084
SNU475 LIVER | 1.08 ± 0.012 | 1.08 ± 0.062 | 1.1 ± 0.027 | 1.01 ± 0.016 | 1.02 ± 0.03 | 0.948 ± 0.052 | 0.809 ± 0.024 | 1.03 ± 0.024 | 1.07 ± 0.035 | 1.05 ± 0.035 | 1.06 ± 0.045 | 1.02 ± 0.03 | 1.02 ± 0.071 | 1 ± 0.085 | 1.04 ± 0.016 | 1.03 ± 0.029
SUM44 BREAST | 1.26 ± 0.39 | – | 1.25 ± 0.42 | 1.33 ± 0.42 | 1.36 ± 0.47 | 1.25 ± 0.46 | 1.17 ± 0.43 | 0.949 ± 0.017 | 0.962 ± 0.057 | 1.02 ± 0.037 | 0.991 ± 0.045 | 1.06 ± 0.034 | 1.12 ± 0.07 | 1.1 ± 0.047 | 1.03 ± 0.031 | 1.28 ± 0.41
SUM149 BREAST | 1.05 ± 0.075 | – | 0.96 ± 0.033 | 1.01 ± 0.13 | – | 0.817 ± 0.07 | 0.51 ± 0.072 | 1.05 ± 0.046 | 1.006 ± 0.01 | 1.07 ± 0.014 | 1.04 ± 0.038 | 0.947 ± 0.085 | 0.872 ± 0.1 | 0.902 ± 0.069 | 0.892 ± 0.071 | 1.08 ± 0.024
